Experiment [1] concerns Candida albicans. In words: Compound was tested in vitro for antifungal activity against Candida albicans (CY3003). In kind it is functional.
The test system of experiment [2] is Aspergillus fumigatus. In words: Compound was tested in vitro for antifungal activity against Aspergillus fumigatus (CF1004). Type of experiment: functional.
In experiment [3] the test system is Cryptococcus neoformans. In words: Compound was tested in vitro for antifungal activity against Cryptococcus neoformans (CY1057).
The target in experiment [4] is Lanosterol 14-alpha demethylase (Candida albicans) (UniProt P10613). Nature of the experiment: In vitro inhibition of cytochrome P450 lanosterol C14 demethylase in Candida albicans CY1005.
Chain of Lanosterol 14-alpha demethylase (Candida albicans) (P10613 whole entry, looked up): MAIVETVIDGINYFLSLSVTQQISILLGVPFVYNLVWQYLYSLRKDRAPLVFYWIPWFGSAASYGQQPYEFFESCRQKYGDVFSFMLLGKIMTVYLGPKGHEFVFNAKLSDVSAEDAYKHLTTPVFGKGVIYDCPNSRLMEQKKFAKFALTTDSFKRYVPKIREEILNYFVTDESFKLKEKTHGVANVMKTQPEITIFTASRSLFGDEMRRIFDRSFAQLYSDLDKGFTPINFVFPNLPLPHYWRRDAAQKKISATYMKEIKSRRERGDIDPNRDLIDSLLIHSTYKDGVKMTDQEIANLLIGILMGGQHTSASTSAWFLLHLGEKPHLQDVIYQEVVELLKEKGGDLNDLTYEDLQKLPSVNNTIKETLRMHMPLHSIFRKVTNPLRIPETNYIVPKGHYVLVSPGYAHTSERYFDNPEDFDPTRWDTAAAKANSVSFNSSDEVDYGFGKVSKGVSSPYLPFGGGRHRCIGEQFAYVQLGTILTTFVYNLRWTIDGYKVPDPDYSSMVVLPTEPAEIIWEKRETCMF
Experiment [5] concerns Candida albicans. In words: Compound was tested in vitro for antifungal activity against Cryptococcus neoformans (CY1057) in experiment 2. Type of experiment: functional.
Experiment [6] concerns Aspergillus fumigatus. Nature of the experiment: Compound was tested in vitro for antifungal activity against Aspergillus fumigatus (CF1004) in experiment 2. In kind it is functional.

Molecules are shown by their SMILES. Values after ≈ are worked out from the molar mass of the structure shown.

Usually IC80 stands for the concentration needed for an effect of 80%. On to `CCc1ccc(CC[C@@H]2CCC(C)(C)/C(=N/OC)[C@H]2Cn2cncn2)cc1`, for which the IC80 in experiment [1] worked out at 0.024 µg/mL (≈ 0.0651 µM); in experiment [2], 0.064 µg/mL (≈ 0.174 µM); in experiment [3], 0.48 µg/mL (≈ 1.3 µM).
The matching figures for `CO/N=C1\[C@@H](Cn2cncn2)[C@H](COc2ccc(OC(F)(F)F)cc2)CCC1(C)C`: 0.12 µg/mL (≈ 0.281 µM), 0.4 µg/mL (≈ 0.938 µM) and 7.6 µg/mL (≈ 17.8 µM).
Consider `CC1(C)CC[C@@H](COc2ccc(OC(F)(F)F)cc2)[C@H](Cn2cncn2)/C1=N\O`, for which the IC80 in experiment [1] is 0.35 µg/mL (≈ 0.849 µM); in experiment [2], 0.17 µg/mL (≈ 0.412 µM); in experiment [3] it was more than 200 µg/mL.
For `COC1[C@@H](Cn2cncn2)[C@H](COc2ccc(OC(F)(F)F)cc2)CCC1(C)C` (stereo partly specified) the same measures were 0.18 µg/mL (≈ 0.435 µM), 56 µg/mL (≈ 135 µM) and 0.51 µg/mL (≈ 1.23 µM).
For `CC1(C)CC[C@@H](COc2ccc(OC(F)(F)F)cc2)[C@H](Cn2cncn2)C1OCCO` (stereo partly specified) the same measures were 0.39 µg/mL (≈ 0.879 µM), 110 µg/mL (≈ 248 µM) and 5.2 µg/mL (≈ 11.7 µM).
The matching figures for `CC(=O)c1ccc(CC[C@@H]2CCC(C)(C)/C(=N/O)[C@H]2Cn2cncn2)cc1`: more than 200 µg/mL, 60 µg/mL (≈ 163 µM) and more than 200 µg/mL.
Take `CCc1ccc(CC[C@@H]2CCC(C)(C)C(OCCO)[C@H]2Cn2cncn2)cc1` (stereo partly specified): the IC80 in experiment [1] was 0.00086 µg/mL (≈ 0.00223 µM); in experiment [2], more than 200 µg/mL; in experiment [3] it was 0.36 µg/mL (≈ 0.934 µM).
Turning to `CCc1ccc(CC[C@@H]2CCC(C)(C)/C(=N/O)[C@H]2Cn2cncn2)cc1`, the IC80 was found to be 0.023 µg/mL (≈ 0.0649 µM) in experiment [1], 0.0011 µg/mL (≈ 0.0031 µM) in experiment [2] and 130 µg/mL (≈ 367 µM) in experiment [3].
The matching figures for `CC(O)c1ccc(CC[C@@H]2CCC(C)(C)/C(=N/O)[C@H]2Cn2cncn2)cc1` (stereo partly specified): more than 200 µg/mL, 21 µg/mL (≈ 56.7 µM) and more than 200 µg/mL.
One may read the IC50 as the concentration needed to halve the response being measured. Higher therefore signals lower potency. As for `CCc1ccc(CC[C@@H]2CCC(C)(C)[C@H](OC)[C@H]2Cn2cncn2)cc1`, the values for the IC80 in experiment [1], in experiment [2] and in experiment [3] were 0.0042 µg/mL (≈ 0.0118 µM), more than 200 µg/mL and 0.74 µg/mL (≈ 2.08 µM), respectively. The IC50 in experiment [4] was 0.01 µg/mL (≈ 0.0281 µM).
Turning to `OC(Cn1cncn1)(Cn1cncn1)c1ccc(F)cc1F` [FLUCONAZOLE], the IC80 is 1.3 µg/mL (≈ 4.24 µM) in experiment [1]; 2.6 µg/mL (≈ 8.49 µM) in experiment [5]; 150 µg/mL (≈ 490 µM) in experiment [2]; more than 200 µg/mL in experiment [6]; 6.2 µg/mL (≈ 20.2 µM) in experiment [3].

(Values after ChEMBL document CHEMBL1130883, “Modeling, synthesis and biological activity of novel antifungal agents (1)” (Bioorg Med Chem Lett, 1998).)
